# Test results published in US9364413B2, “Method for anti-aging treatment by surfactin in cosmetics via enhancing sirtuin” (UMO International Co., Ltd., priority 2014, dated 2016).
# Peptide text beside a SMILES is read from it.
# Assays:
# [1] = test system: mouse embryo fibroblasts; assay: cell proliferation of mouse embryo fibroblasts; type: cell-based; conditions: 48 hours
# [2] = emulsifying power in diesel, emulsification index (E24); type: physicochemical
# Protocol: After incubation at room temperature for 24 hours, emulsification index (E24) was measured.
# The emulsifying power is one of the important indicator of surfactants, and present invention utilized the method published by Cooper et. al to measure the emulsification index of surfactants in diesel. Different concentrations of crude surfactin was dissolved in buffer solutions at pH 6.4, 7.4 and 8.4, and 2 ml of the dissolved mixture was added to a test tube containing 3 ml of diesel, vortex for 2 minutes and incubate at room temperature for 24 hours before measurement. The ration of height of the emulsifying phase and the total height of the solution multiplied by 100% will give the emulsification index of the test solution. The emulsifying power of oil products is represented as the emulsification index (E24), wherein the equation of E24 is shown as follows: E24(%)=(height of the emulsifying phase/total height of solution)×100%.
# [3] = test system: sirtuin 1 gene; assay: mRNA expression of the long-lived gene sirtuin 1 by real-time quantitative PCR; type: cell-based; conditions: mouse embryo fibroblasts
# From the text: Total RNA was extracted from human skin fibroblasts and mouse embryo fibroblasts using TRIzol reagent (Invitrogen, USA), analyzed by RNA gel electrophoresis and subjected to RT-PCR for amplification of human skin fibroblasts sirtuin 1 and sirtuin 3 and mouse embryo fibroblasts sirtuin 1. GeneBan was used to identify well known sequences of sirtuins and GCG program was utilized to search for sequences with high similarity. A primer set was designed for polymerase chain reaction (PCR), followed by 1.2% agarose gel electrophoresis of a small portion of the reaction product to confirm the expected product has been amplified. Once confirmed, the remaining product was subjected to low-melting point agar gel electrophoresis, the product was excised from the gel and the specific size of DNA fragment was purified by gel extraction for cloning. The purified DNA fragment was ligated with the cloning vector pGEM-T-easy vector (pGEM-T-easy cloning kit, Promega, USA) before transformed into the competent cells. Finally, after small scale culture, cloning vector was extracted for sequencing, and the sequence data was compared using the BLAST program of NCBI. Part of the human skin fibroblast sirtuin 1 and sirtuin 3 and mouse embryo fibroblasts sirtuin 1 were correctly cloned by the abovementioned cloning procedures and the selected clones were transformed into competent cells again for extraction of plasmid with high purity for future experiments.
# RNA is easily degraded in natural environment by RNase and thus all tools used must be autoclaved and dried in an oven prior to conducting experiments and wear gloves and masks during the procedures. Quickly add 800 μL TRIzol™ reagent to the culture dish of the experimental group and transfer the washed off cells to a sterile tube. Add chloroform to the tube in the volume of ⅕ of the total volume of TRIzol™ reagent and shake vigorously for 30 seconds. After incubation at room temperature for 15 minutes, centrifuge at 13200 rpm for 15 minutes at 4° C. and transfer the supernatant to a new 1.5 mL eppendorf. RNA is present in the aqueous phase of the supernatant. Transfer the supernatant to another clean 1.5 mL eppendorf and add Isopropanol in the volume of ½ of TRIzol™ reagent and high salt solution (1.2 M Sodium Chloride and 0.8 M Sodium citrate), mix well and incubate at −20° C. for 30 minutes, followed by centrifugation at 13200 rpm for 15 minutes at 4° C. to precipitate RNA; remove the supernatant carefully and add 800 μL of 100% absolute ethanol to wash and centrifuge at 13200 rpm for 10 minutes at 4° C. before washing with 100% ethanol. Carefully remove the supernatant and dry the RNA precipitate at 55° C. for 5 minutes. Dissolve the RNA precipitate in 15 μL DEPC water and incubate at 55° C. for 10 minutes and store at −80° C. freezer for future use.
# Place 5 μg of total RNA in a 200 μL eppendorf and adjust the volume to 13 μL with DEPC water, add 1 μL of oligo(dT) 18, 10 mM dNTPs and incubate on ice. Add 4 μl of 5×AMV buffer and 1 μl of AMV (40 units/μL) and mix well. […]
# The fluorescent dye SYBR green I can be embedded in the groove of double-stranded DNA and generate fluorescence when excited by a halogen light and its intensity can then be measured. When SYBR green I is not embedded in the groove of double-stranded DNA, its fluorescence background value is very low; and when it starts to integrate into the amplified target gene sequence, the fluorescence signal of SYBR green I will also be increased accordingly. […]
# [4] = turbidity of diluted shampoo and corecervate formation; type: physicochemical
# Protocol: (1) Adjust the relative concentration of the shampoo to 0.01-1.0
# Relative concentration=shampoo liquid (g)/(shampoo liquid (g)+water (g))
# (2) Measure the transmittance rate (%, temperature at 40° C.) of the […] solution (1) and the turbidity is represented as =100−transmittance rate (%)
# [5] = skin absorption of FITC-labeled poly-γ-glutamic acid in mice; type: in vivo; conditions: 1, 2, 5, 10, 15 and 20% surfactin, 1 hour, back of mice, fluorescence intensity
# [6] = percutaneous penetration of gold nanoparticles in mice; type: in vivo; conditions: 12.5 ppm surfactin, gold nanoparticles 2 nm, mice (BALB/c)
# From the text: We applied the mix of gold nanoparticles and surfactin to the skin of mice for a certain period of time and collected the skin for cryosection. Because gold nanoparticles is self-luminous, optical microscope can be used to observe the content of fluorescence of gold nanoparticles in epidermis and dermis of the skin. The results indicated skin care paste obtained by conventional methods is not helpful for gold nanoparticle absorption by the skin due to its internal gel-mass like or gel-bundle like structure and thus gold nanoparticles were only found in the epidermis.
# [7] = test system: mouse embryo fibroblasts; assay: anti-oxidation: cell survival after hydrogen peroxide treatment (MTT method); type: cell-based
# Protocol: Following subculture of the mouse embryo fibroblasts and incubation for 4 hours for attachment, hydrogen peroxide was used to treat the cells as the source of oxidation. The cells were treated with 100, 150, 200 and […] of hydrogen peroxide before addition of 25, 50, 75 and 100 μM of surfactin for another 24 hours. Cell survival rate was measured by the MTT method.
# [8] = foaming power, foam maximum density (MD); type: physicochemical; conditions: buffer pH 7.4, more than 150 μg of surfactin, surfactin produced by Bacillus subtilis TH
# Protocol: Measure the height of the foam and calculate the foam maximum density (MD).
# Surfactants are […] and present invention examined the foaming property of crude surfactin. The method developed by Razafindralambo et. al was referenced and different concentrations of crude surfactin was dissolved in a buffer solution with a pH at 7.4, vortex for 2 minutes and followed by incubation for 1 hour. The height of the foam was then measured and the foaming power is expressed as foam maximum density (MD) which is obtained by dividing the […].
# [9] = skin absorption of FITC-labeled hyaluronic acid in mice; type: in vivo; conditions: 1 hour, back of mice
# Protocol: (§1) Before the experiment, the back of the mice was shaved. Mice aged 6-8 weeks were anesthetized by intraperitoneal injection using (Zoletil) and lay the animal flat before shaving the back with a electric razor and remove the remaining hair with hair removal cream. Place the animals in the cages with a warming light and provide water in each cage. Two groups are include in the experiment: for the control group, 100 μl of PBS (pH=7.4) was mixed with fluorescein isothiocyanate (FITC)-labeled HA or dexamethasone before added to 1 cm2 sterile cotton and affixed to the back of the mice; for the experimental group, FITC-labeled HA or dexamethasone was mixed with 0, 0.2, 0.5, 1, 2 and 5% surfactin for 1 hour.
# (§2) At the end of 1 hour treatment, sacrificed the mice with CO2 asphyxiation, clean up the drug residue on the skin with ethanol and cut the skin on the back and embedded in Optimum cutting temperature compound (O.C.T) (SAKURA®, Japen) for cryosection (CM-2000, Leica, Germany).
# [10] = test system: collagen; assay: Sircol soluble collagen assay; type: cell-based, mouse; conditions: 24 hours
# Protocol: Sircol™ soluble collagen assay kit was used for analysis the total concentration of collagen in the culture media and the general method is described as follows:
# Place 0.1 ml of the test samples and the standards at different concentrations in separate 1.5 mL centrifuge tubes. Add 1 mL of dye reagent and vortex for 35 minutes, followed by centrifugation at 12000 rpm for 10 minutes and remove the supernatant. Carefully remove the residue water at the side of the tube to avoid contact with the precipitate. Add 1 mL of Alkali reagent to dissolve the precipitate and transfer 0.2 mL to a 96-well pate after the color has developed and measure absorbance at 570 nm using an ELISA reader.
# [11] = Razafindralambo et al.; cited from earlier work
# [12] = skin penetration of FITC-labeled dexamethasone in mice; type: in vivo; conditions: 0.2, 0.5, 1 and 2% surfactin, 1 hour, back of mice, fluorescence intensity
# Protocol: as §1, §2
# [13] = test system: mouse embryo fibroblasts; assay: anti-photoaging: cell survival after UV-A irradiation (MTT method); type: cell-based; conditions: for cell survival rate after UV irradiation: 24 hours
# Protocol: After incubation for 24 hours, cell survival rates were measured by the MTT method.
compound,measurement,setting,value
"CC(C)CCCCCCCCC[C@@H]1CC(=O)N[C@@H](CCC(=O)O)C(=O)N[C@@H](CC(C)C)C(=O)N[C@H](CC(C)C)C(=O)N[C@@H](C(C)C)C(=O)N[C@@H](CC(=O)O)C(=O)N[C@H](CC(C)C)C(=O)N[C@@H](CC(C)C)C(=O)O1 [surfactin] (HELM PEPTIDE1{E.L.[dL].V.D.[dL].L}|CHEM1{[CC(C)CCCCCCCCC[C@H](CC(=O)[*:1])O[*:2]]}$PEPTIDE1,CHEM1,1:R1-1:R1|PEPTIDE1,CHEM1,7:R2-1:R2$$$V2.0)",mouse embryo fibroblast proliferation,"[1]; 0, 25, 50, 75 and 100 μM",can enhance mouse embryo fibroblast proliferation
same,concentration with the best effect in inducing cell proliferation,[1]; followed by 50 μM,75 µM
same,cell proliferation compared with resveratrol and Palmitoyl pentapeptide-3,"[1]; resveratrol 0-30 μM, Palmitoyl pentapeptide-3 0-10 μM",better effect in inducing cell proliferation
same,pH of the best emulsifying power,"[2]; pH 6.4, 7.4 and 8.4 tested, E24 after 24 hours",7.4
same,concentration of the best emulsifying power,[2]; pH=7.4,160 μg/m
same,concentration with the best effect in enhancement of sirtuin 1 expression,"[3]; 0-100 μM tested, 6-48 hours",50 µM
same,expression of the sirtuin 1 gene,"[3]; 6 hours, 50 μM and 75 μM surfactin",enhance expression of the sirtuin 1 gene
same,expression of the sirtuin 1 gene,"[3]; 12 hours, 25 μM surfactin",enhancement of expression of the sirtuin 1 gene
same,expression of the sirtuin 1 gene,"[3]; 36 hours, 50 μM and 100 μM surfactin",enhancement of expression of the sirtuin 1 gene
same,expression of the sirtuin 1 gene,"[3]; 48 hours, 50 μM surfactin",enhancement of expression of the sirtuin 1 gene
same,turbidity of the shampoo,"[4]; compared with sodium laureth sulfate, 40° C., relative concentration 0.01-1.0",can further reduce the turbidity of the shampoo
same,corecervate formation,[4]; shampoo during flushing / dilution,corecervate will occur at low concentrations
same,skin absorption of γ-GPA,[5],can all increase skin absorption of γ-GPA
same,percutaneous absorption of gold nanoparticles,[6],significantly enhance the percutaneous absorption of gold nanoparticles
same,protective effect against hydrogen peroxide,"[7]; 25, 50 and 75 μM surfactin",good protective effect
same,survival rate of mouse embryo fibroblasts treated with hydrogen peroxide,"[7]; hydrogen peroxide 100-250 μM, surfactin 24 hours, MTT",can increase the survival rate
same,"foam maximum density (MD), minimum",[8],1.23
same,hyaluronic acid (HA) absorption by the skin,"[9]; 0.2-5% surfactin, fluorescence intensity",can increase hyaluronic acid (HA) absorption by the skin
same,surfactin concentration with the best effect on enhancing skin absorption of HA,[9],1%
same,collagen proliferation in mouse embryo fibroblasts,"[10]; 25, 50, 75 and 100 μM, compared with PBS control",great effects in increasing collagen proliferation
same,concentration with the best result in increasing collagen,[10],100 µM
same,MD value of surfactin,[11],≥ 0.10
same,skin penetration of dexamethasone,[12],can enhance skin penetration of dexamethasone
same,cell survival rate after UV irradiation,"[13]; UV 10 J/cm^2, 25, 50, 75, 100 and 125 μM surfactin",increase cell survival rate
same,concentration with the best protection after UV irradiation,"[13]; UV 10 J/cm^2, 24 hours",75 µM
same,cell survival rate after UV irradiation,"[13]; UV 15 J/cm^2, 25, 50, 75, 100 and 125 μM surfactin",increase cell survival rate
same,concentration with the best protection after UV irradiation,"[13]; UV 15 J/cm^2, 24 hours",50 µM
palmitoyl pentapeptide-3 [reference compound],collagen effect compared with surfactin,[10],not as good as surfactin
same,collagen content in the cells,"[10]; Palmitoyl pentapeptide-3 3, 5, 8 and 10 μM",can also increase collagen content
